The source of these data is patent EP0156508A1, “Antifungal aerosol solution” (ORTHO PHARMACEUTICAL CORPORATION, priority 1984, dated 1985).

The structures appear in SMILES notation. Read-outs that look alike come from different tables or passages of the source.

This series is described as follows: Solubility of miconazole nitrate in several common solvents. The series is classed as physicochemical. From the text: The imidazole ethers in general and the miconazoles in particular have very low solubilities in most solvents suitable for use in topical pharmaceutical compositions such as in the treatment of fungal skin infections. The solubility of miconazole nitrate, for example, in several common solvents has been determined to be as follows: […]

With `Clc1ccc(COC(Cn2ccnc2)c2ccc(Cl)cc2Cl)c(Cl)c1.O=[N+]([O-])O` (stereo not drawn) [miconazole nitrate, 1-[2,4-dichloro-β-(2,4-dichlorobenzyloxy)-phenethyl] imidazole nitrate], the solubility was 1300 µg/mL (Solvent: 40% PG/water, read-out: solubility); 500 µg/mL (Solvent: HCl 0.1 N, read-out: solubility); “Insoluble” (Solvent: NaOH); 300 µg/mL (Solvent: Water, read-out: solubility); 1300 µg/mL (organic solvent or mixture, Solvent: 2-Propanol, read-out: solubility); 3400 µg/mL (organic solvent or mixture, Solvent: Acetone, read-out: solubility). For the same compound, the solubility by setting is: (organic solvent or mixture, Solvent: Benzene, read-out: solubility) 500 µg/mL; (organic solvent or mixture, Solvent: Chloroform, read-out: solubility) 3100 µg/mL; (organic solvent or mixture, Solvent: Ethanol, read-out: solubility) 7600 µg/mL; (organic solvent or mixture, Solvent: Ethyl Acetate, read-out: solubility) 700 µg/mL; (organic solvent or mixture, Solvent: Hexane, read-out: solubility) 300 µg/mL; (organic solvent or mixture, Solvent: Methanol, read-out: solubility) 15000 µg/mL. For the same compound, the solubility runs as follows: (organic solvent or mixture, Solvent: Methyl Isobutylketone, read-out: solubility) 400 µg/mL; (organic solvent or mixture, Solvent: PEG 300, read-out: solubility) 1300 µg/mL; (organic solvent or mixture, Solvent: Propylene Glycol, read-out: solubility) 1500 µg/mL; (organic solvent or mixture, Solvent: Tetrahydrofuran, read-out: solubility) 2000 µg/mL.

The solubility is how much of the substance goes into solution per volume.
